{
  "source": "paper PMC6321543",
  "about": "“Cloning, Characterization and Anion Inhibition Studies of a β-Carbonic Anhydrase from the Pathogenic Protozoan Entamoeba histolytica” (Molecules, 2018)",
  "data": [
    {"target": "T1, EhiCA (Entamoeba histolytica, UniProt C4LXK3)", "T1 construct": "gene EHI_073380; His-tag cleaved with thrombin; 21 kDa (21/25 kDa doublet); one Zn per chain; Zn ligands Cys50, His103, Cys106, dyad Asp52-Arg54; dimer and trimer seen on SDS-PAGE", "T1 sequence (C4LXK3 1-188)": "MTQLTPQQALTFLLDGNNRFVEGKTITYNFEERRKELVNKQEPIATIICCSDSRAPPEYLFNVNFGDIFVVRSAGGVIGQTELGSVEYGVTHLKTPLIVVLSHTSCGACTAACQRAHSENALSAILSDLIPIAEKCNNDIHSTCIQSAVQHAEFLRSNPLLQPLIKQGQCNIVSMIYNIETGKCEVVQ", "assay": "biochemical", "conditions": "not given", "units": {"Ki": "mM"}, "values": [
      {"smiles": "N#CS", "note": "[SCN^−]", "Ki": 7.9},
      {"smiles": "O=S(=O)(O)O", "note": "[SO4^2−]", "Ki": 21.6},
      {"smiles": "I", "note": "[I^−]", "Ki": 7.4},
      {"smiles": "O=P(O)(O)OP(=O)(O)O", "note": "[P2O7^4−]", "Ki": "> 100"}
    ]},
    {"target": "T1, EhiCA", "assay": "biochemical", "conditions": "CO2 hydration, TRIS pH 8.3, 20 °C (methods: 25 °C), 0.1 M NaClO4, 15 min pre-incubation; as sodium salt; read-out: KI [mM] ^#", "units": {"Ki": "mM"}, "values": [
      {"smiles": "F[P-](F)(F)(F)(F)F", "note": "[PF6^−]", "Ki": "> 100"}
    ]},
    {"target": "T1, EhiCA", "assay": "biochemical", "conditions": "read-out: KI [mM] ^#", "units": {"Ki": "mM"}, "values": [
      {"smiles": "O=S(=O)(O)OOS(=O)(=O)O", "note": "[S2O8^2−]", "Ki": 8.4},
      {"smiles": "N#CO", "note": "[CNO^−]", "Ki": 0.77},
      {"smiles": "O=S(=O)(O)NS(=O)(=O)O", "note": "[NH(SO3)2^2−]", "Ki": 2.2},
      {"smiles": "N#C[SeH]", "note": "[SeCN^−]", "Ki": 0.87},
      {"smiles": "F", "note": "[F^−]", "Ki": "> 100"},
      {"smiles": "F[B-](F)(F)F", "note": "[BF4^−]", "Ki": "> 100"},
      {"smiles": "[O]=[Ru](=[O])(=[O])[OH]", "note": "[RuO4^−]", "Ki": 7},
      {"smiles": "Br", "note": "[Br^−]", "Ki": 36.8},
      {"smiles": "O=S(=O)(O)F", "note": "[FSO3^−]", "Ki": 0.086},
      {"smiles": "[O]=[V]([OH])([OH])[O][V](=[O])([OH])[OH]", "note": "[V2O7^4−]", "Ki": "> 100"},
      {"smiles": "O=[N+]([O-])O", "note": "[NO3^−]", "Ki": 3.6},
      {"smiles": "NS(=O)(=O)O", "note": "[H2NSO3H]", "Ki": "> 100"},
      {"smiles": "O=NO", "note": "[NO2^−]", "Ki": 1.7},
      {"smiles": "CCN(CC)C(=S)S", "note": "[Et2NCS2^−]", "Ki": 0.51},
      {"smiles": "[O-][Cl+3]([O-])([O-])O", "note": "[ClO4^−]", "Ki": "> 100"},
      {"smiles": "S=C(S)S", "note": "[CS3^2−]", "Ki": 6},
      {"smiles": "[O]=[Re](=[O])(=[O])[OH]", "note": "[ReO4^−]", "Ki": 7.1},
      {"smiles": "O=[Se](=O)(O)O", "note": "[SeO4^2−]", "Ki": 6},
      {"smiles": "OB(O)c1ccccc1", "note": "[Ph-B(OH)2]", "Ki": 0.047},
      {"smiles": "Cl", "note": "[Cl^−]", "Ki": "> 100"},
      {"smiles": "S", "note": "[HS^−]", "Ki": 6.9},
      {"smiles": "O=S(O)O", "note": "[HSO3^−]", "Ki": 11.5},
      {"smiles": "NS(N)(=O)=O", "note": "[H2NSO2NH2]", "Ki": 0.028},
      {"smiles": "O=[Te](=O)(O)O", "note": "[TeO4^2−]", "Ki": 0.61},
      {"smiles": "O=S(=O)(O)C(F)(F)F", "note": "[CF3SO3^−]", "Ki": "> 100"}
    ]}
  ]
}
